Molecular target: T1, chimeric protein PPARγ-Gal4 (Homo sapiens, UniProt P37231)
T1 construct: Gal4 (yeast transcription factor); expressed in transfected cells; host or cells: CV-1 cells (monkey kidney cells)
T1 sequence (P37231 238-503 limits assumed): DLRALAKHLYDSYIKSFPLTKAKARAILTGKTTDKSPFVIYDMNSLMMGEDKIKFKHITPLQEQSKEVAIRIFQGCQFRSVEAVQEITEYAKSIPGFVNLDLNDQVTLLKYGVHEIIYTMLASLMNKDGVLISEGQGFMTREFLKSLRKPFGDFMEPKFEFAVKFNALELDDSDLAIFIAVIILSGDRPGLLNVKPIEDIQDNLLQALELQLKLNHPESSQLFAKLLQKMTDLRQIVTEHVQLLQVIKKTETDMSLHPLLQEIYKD
Test: PPARγ-Gal4 transactivation (luciferase reporter) test in cotransfected CV-1 cells
Format: cell-based
Description: The measurement of the PPAR activation was performed according to a technique described by Lehmann et al. (J. Biol. Chem., 270, (1995),
CV-1 cells (monkey kidney cells) are cotransfected with an expression vector for the chimeric protein PPARγ-Gal4 and with a “reporter” plasmid that allows expression of the luciferase gene placed under the control of a promoter comprising Gal4 response elements.
The cells are seeded in 96-well microplates and cotransfected using a commercial reagent with the reporter plasmid (pG5-tk-pGL3) and the expression vector for the chimeric protein (PPARγ-Gal4). After incubation for 4 hours, whole culture medium (comprising 10% foetal calf serum) is added to the wells. After 24 hours, the medium is removed and replaced with whole medium comprising the test products. The products are left in contact with the cells for 18 hours. The cells are then lysed and the luciferase activity is measured using a luminometer. A PPARγ activation factor can then be calculated by means of the activation of the expression of the reporter gene induced by the product (relative to the control cells that have received no product).
In the absence of the PPARγ ligand binding domain (vector expressing Gal4 alone), the luciferase activity measured in the presence of an agonist is zero.
The following transactivation result was obtained with a concentration of 50 μM on PPARγ.
The transactivation test using the expression of a chimeric protein Gal-4-PPARγ makes it possible to determine also whether an agonist functions as a “full” agonist or as a “partial” agonist in this system.
An agonist is “partial” in this system if it induces a weaker response, i.e. it has lower efficacy, than rosiglitazone, which is a “full” agonist. In concrete terms, in our system, the transactivation obtained at the plateau with a partial agonist will be between 20% and 50% of the maximum response (efficacy) at the plateau of rosiglitazone.

Row | Compound | Concentration to reach the maximum stimulation of the PPARγ chimeric protein (Gal4-PPARγ transactivation test, CV-1 cells) [µM] | Emax (transactivation at the plateau as % of the maximum response (efficacy) of rosiglitazone, CV-1 cells, read-out: Maximum stimulation of the PPARγ chimeric protein obtained with rosiglitazone) [%] | Activation factor of the chimeric protein PPARγ-Gal4 (50 μM, CV-1 cells (monkey kidney cells), 18 hours contact, luciferase reporter, relative to control cells without product (= 1))
1 | CCOC(=O)c1c(C)n(CCOC)c2cc(CCCC3CCCC3)c(OCCCC(=O)O)cc12 [Example 31, ethyl 5-(3-carboxypropoxy)-6-(3-cyclopentylpropyl)-1-(2-methoxyethyl)-2-methyl-1H-indole-3-carboxylate] | 1 | 24 | 
2 | CCOC(=O)c1c(C)n(Cc2ccccc2)c2cc(-c3cccnc3)c(OCCCC(=O)O)cc12 [Example 4, Ethyl-benzyl-5-(3-carboxypropoxy)-2-methyl-6-pyrid-3-yl-1H-indole-3-carboxylate] |  |  | 17

— patent US7754740B2, “1H-indole-3-carboxylic acid derivatives and their use as PPAR agonists” (Merck Patent GmbH, priority 2005, dated 2010)
